Each structure is given as a SMILES string. Where a name gives a salt, the structure may show the parent alone. Bounds are passed on as bounds.

The test system of one assay is HT-29 tumor cells. Description: Cell growth inhibition assay (CellTiter-Glo), HT-29. Type of assay: cell-based, Human. As to conditions: Homo sapiens. The protocol:
(§1) Human breast tumor cells (BT474) were cultured in RPMI (Mediatech […]), containing 10% FBS (JRH Biosciences 12176) and 1% penicillin-streptomycin (Invitrogen 15140). Human head and neck tumor cells (HN5) were cultured in high glucose DMEM (Mediatech 50-013-PB) containing 10% FBS and 1% penicillin-streptomycin. Human colon tumor cells (Colo205) were cultured in RPMI (Mediatech 50-020-PB) containing 10% FBS and 1% penicillin-streptomycin. Human melanoma cancer cells (SK-MEL-28) were cultured in EMEM with nonessential amino acids (Mediatech 50-011-PB) containing 10% FBS, 1% sodium pyruvate (JT Baker 3354-04), and 1% penicillin-streptomycin. Human melanoma cancer cells (A375P F11s) were cultured in RPMI (Mediatech 50-020-PB) containing 10% FBS, 1% sodium pyruvate, and 1% penicillin-streptomycin. Human colon cancer cells (HT-29) were cultured in high glucose DMEM (Mediatech 50-013-PB) containing 10% FBS and 1% penicillin-streptomycin. Human melanoma cancer cells (SK-MEL-3) were cultured in McCoy's 5A (50-025-PB) containing 15% FBS, and 1% penicillin-streptomycin. All cell lines were maintained at 37° C. in a humidified 5% CO2, 95% air incubator. Cells were harvested using trypsin/EDTA (Invitrogen 25200), counted using a haemocytometer, and plated. For 96-well assays (using white full-area NUNC plates cat. #136102), cells were plated in 105 μL at the following densities (cells/well): HNS, 500; Colo 205, 500; SK-MEL-28, 500; A375P F11s, 500; HT-29, 500; SK-MEL-3, 500; and BT474, 3000. For 384-well assays (white full-area NUNC plates, cat. #781080), cells were plated in 48 μL at the following densities (cells/well): HNS, 500; Colo205, 500; SK-MEL-28, 500; A375P F11s, 500; HT-29, 500; SK-MEL-3, 500; and BT474, 2000.
(§2) The next day, compounds were diluted as follow: For 96-well assays, 13.5 μL of compound in DMSO were diluted using nine (9) serial 1:3 dilutions of 4.5 μL in 9 of DMSO. Medium (270 μL/well of RPMI with 10% FBS and 1% penicillin-streptomycin) was added to the plates. Aliquots (7 μL) were added to cells in the final assay giving a final DMSO concentration of 0.2%. For 384-well assays, 15 μL of compound in DMSO were diluted using nine (9) serial 1:3 dilutions of 5 μL in 10 μL of DMSO, followed by a further dilution of 5 μL of compound with 95 μL of medium, of which 2 μL were added to cells in the final assay giving a final DMSO concentration of 0.2%. Cells were incubated at 37° C., 5% CO2 for 3 days.
(§3) Total ATP was measured (as a surrogate estimate of cell number) using CellTiter-Glo® reagent (Promega G7571). Briefly, plates were removed from the incubator and allowed to equilibrate to room temperature for 30 minutes. CellTiter-Glo® (25 μL or 55 μL for 384-well or 96-well assays, respectively) reagent was added to each well and plates were shaken on an orbital plate shaker for 2 minutes. Plates were incubated without shaking for a further 30 minutes and read on an LJL Analyst GT reader in luminometer mode with an integration time of 0.5 seconds per well. Percent inhibition of cell growth was calculated relative to DMSO vehicle-treated control wells. Concentration of compound required to give 50% inhibition of vehicle-treated control cell growth (IC50) was interpolated using a 4-parameter fit for determining IC50 using the following equation: Y=A +((B−A)/(1+((C/X)̂D))) where […].

The next assay deals with Colo205 tumor cells. Description: Cell growth inhibition assay (CellTiter-Glo), Colo205. As to conditions: Homo sapiens, COLO 205, 72 h; 3 days incubation. The class given is cell-based, Human. Summed up: (§4)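 Cells plated at 500 cells/well in their growth media, dosed next day with nine-step 1:3 compound dilutions (final DMSO 0.2%), then incubated 3 days at 37° C, 5% CO2. Total ATP read by CellTiter-Glo luminescence as a surrogate for cell number; IC50 interpolated from 4-parameter fit versus DMSO controls.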
On the technique in general: Cellular ATP, detected with luciferase, serves as a proxy for viable cell number.

For the next assay, the system named is HN5 tumor cells. In words: Cell growth inhibition assay (CellTiter-Glo), HN5. To be noted: Homo sapiens, 72 h; 3 days incubation. The class given is cell-based, Human. The protocol: as §1, §2, §3
Another assay deals with SK-MEL-28 tumor cells. In words: Cell growth inhibition assay (CellTiter-Glo), SK-MEL-28. Type of assay: cell-based, Human. As to conditions: Homo sapiens, SK-MEL-28, 72 h; 3 days incubation. Summed up:
as §4

Another assay addresses B-Raf (Homo sapiens, UniProt P15056). In words: B-Raf Accelerated MEK ATPase assay (BRAMA), Method A or B. The class given is biochemical. As to conditions: Method B: final MEK 150 nM, single end point read. An outline of the steps: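 Activated Raf plus non-phosphorylated MEK drives MEK-mediated ATP hydrolysis; ADP formation coupled via pyruvate kinase/lactate dehydrogenase to NADH oxidation. Method A read kinetically; Method B used 150 nM final MEK and a single end-point read.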

In another assay the test system is A375P F11s tumor cells. Description: Cell growth inhibition assay (CellTiter-Glo), A375P F11s. The class given is cell-based, Human. To be noted: Homo sapiens. How it is done: as §1, §2, §3
A further assay relates to BT474 tumor cells. Description: Cell growth inhibition assay (CellTiter-Glo), BT474. Type of assay: cell-based, Human. As to conditions: Homo sapiens, BT-474, 72 h, 3 days incubation. How it is done: as §1, §2, §3
Another assay concerns SK-MEL-3 tumor cells. Description: Cell growth inhibition assay (CellTiter-Glo), SK-MEL-3. The class given is cell-based, Human. As to conditions: Homo sapiens, SK-MEL3. The protocol: as §1, §2, §3

Sequence of B-Raf (P15056 whole entry): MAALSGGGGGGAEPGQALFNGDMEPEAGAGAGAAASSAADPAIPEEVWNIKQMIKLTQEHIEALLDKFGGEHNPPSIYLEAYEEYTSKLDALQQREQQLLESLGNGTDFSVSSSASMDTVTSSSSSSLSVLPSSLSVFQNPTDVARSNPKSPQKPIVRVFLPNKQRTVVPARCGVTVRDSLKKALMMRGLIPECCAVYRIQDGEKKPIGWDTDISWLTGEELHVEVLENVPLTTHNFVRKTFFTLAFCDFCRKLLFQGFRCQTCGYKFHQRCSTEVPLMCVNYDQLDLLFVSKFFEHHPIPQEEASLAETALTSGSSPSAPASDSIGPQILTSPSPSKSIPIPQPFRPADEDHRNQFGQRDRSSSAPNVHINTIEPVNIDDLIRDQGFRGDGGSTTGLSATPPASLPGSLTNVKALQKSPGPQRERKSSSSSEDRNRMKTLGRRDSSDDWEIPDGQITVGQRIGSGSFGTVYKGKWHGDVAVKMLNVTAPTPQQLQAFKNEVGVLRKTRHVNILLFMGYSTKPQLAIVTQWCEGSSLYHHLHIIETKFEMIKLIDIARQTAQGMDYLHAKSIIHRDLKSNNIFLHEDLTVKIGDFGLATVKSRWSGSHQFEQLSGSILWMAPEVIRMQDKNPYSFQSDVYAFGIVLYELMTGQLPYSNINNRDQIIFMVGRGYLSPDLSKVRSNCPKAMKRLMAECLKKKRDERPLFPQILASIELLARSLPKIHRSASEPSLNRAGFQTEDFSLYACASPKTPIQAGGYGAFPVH

Usually IC50 stands for the concentration at which inhibition is half-maximal. As for `O=S1(=O)Cc2ccc(Nc3nccc(-c4sc(N5CCOCC5)nc4-c4cccc(NS(=O)(=O)c5c(F)cccc5F)c4F)n3)cc2C1` [Example 155], the half-maximal inhibitory concentration (IC50) with HT-29 tumor cells is under 100 nM; with Colo205 tumor cells, under 100 nM; in the assay with HN5 tumor cells it was 100 to 1000 nM; with SK-MEL-28 tumor cells, under 100 nM; at B-Raf, under 100 nM; in the assay on A375P F11s tumor cells, under 100 nM. Further, the values for the IC50 with BT474 tumor cells and with SK-MEL-3 tumor cells were over 1000 nM and under 100 nM, respectively.

Consider `O=S(=O)(Nc1cccc(-c2nc(N3CCOCC3)sc2-c2ccnc(Nc3ccc(N4CCOCC4)nc3)n2)c1F)c1c(F)cccc1F` [Example 122], for which the IC50 with HT-29 tumor cells is under 100 nM; in the assay with Colo205 tumor cells it was under 100 nM; in the assay on HN5 tumor cells, 100 to 1000 nM; in the assay on SK-MEL-28 tumor cells it was under 100 nM; on B-Raf, under 100 nM; with A375P F11s tumor cells it was under 100 nM. Besides, the IC50 with BT474 tumor cells was over 1000 nM; in the assay with SK-MEL-3 tumor cells, under 100 nM.

As to `CC(C)c1nc(-c2cccc(NS(=O)(=O)c3ccco3)c2)c(-c2ccnc(Nc3ccc(N4CCOCC4)nc3)n2)s1` [Example 53], the IC50 in the assay with HT-29 tumor cells, in the assay on Colo205 tumor cells, in the assay with HN5 tumor cells, in the assay with SK-MEL-28 tumor cells, at B-Raf and with A375P F11s tumor cells was under 100 nM throughout. The IC50 in the assay on BT474 tumor cells is over 1000 nM; in the assay with SK-MEL-3 tumor cells, under 100 nM.

Turning to `Cc1cc(Nc2nccc(-c3sc(C(C)(C)C)nc3-c3cccc(NS(=O)(=O)c4c(F)cccc4F)c3F)n2)ccn1` [Example 159], the IC50 with HT-29 tumor cells, in the assay on Colo205 tumor cells, in the assay on HN5 tumor cells, with SK-MEL-28 tumor cells, on B-Raf and in the assay on A375P F11s tumor cells was under 100 nM throughout. The IC50 in the assay with BT474 tumor cells is over 1000 nM; in the assay with SK-MEL-3 tumor cells, under 100 nM.

Regarding `COc1ccc(Nc2nccc(-c3sc(C(C)C)nc3-c3cccc(NS(=O)(=O)c4ccccc4)c3)n2)cc1N1CCN(CCC#N)CC1` [Example 9, N-{3-[5-(2-{[3-[4-(2-Cyanoethyl)-1-piperazinyl]-4-(methyloxy)phenyl]amino}-4-pyrimidinyl)-2-(1-methylethyl)-1,3-thiazol-4-yl]phenyl}benzenesulfonamide], the IC50 was 100 to 1000 nM with HT-29 tumor cells; under 100 nM in the assay with Colo205 tumor cells; 100 to 1000 nM in the assay on HN5 tumor cells; under 100 nM in the assay on SK-MEL-28 tumor cells; under 100 nM against B-Raf; under 100 nM in the assay with A375P F11s tumor cells. Moreover, the figures for the IC50 with BT474 tumor cells and in the assay with SK-MEL-3 tumor cells were over 1000 nM and under 100 nM, respectively.

Take `CC(C)c1nc(-c2cccc(NS(=O)(=O)c3ccccc3)c2)c(-c2ccnc(Nc3ccc(N4CCOCC4)nc3)n2)s1` [Example 8, N-{3-[2-(1-Methylethyl)-5-(2-{[6-(4-morpholinyl)-3-pyridinyl]amino}-4-pyrimidinyl)-1,3-thiazol-4-yl]phenyl}benzenesulfonamide hydrochloride]: the IC50 is 100 to 1000 nM with HT-29 tumor cells; under 100 nM in the assay with Colo205 tumor cells; over 1000 nM in the assay on HN5 tumor cells; under 100 nM with SK-MEL-28 tumor cells; under 100 nM on B-Raf; under 100 nM in the assay on A375P F11s tumor cells. For the same compound, the figures for the IC50 with BT474 tumor cells and in the assay on SK-MEL-3 tumor cells were over 1000 nM and under 100 nM, respectively.
